Reference: patent US20030092684A1, “Compositions and methods for treating hemorrhagic virus infections and other disorders” (priority 1999, published 2003)
Several values for one entry are separate records, joined by “and”; a condition that tells them apart may be missing. Equal entries are not always repeated. Where two headings read alike, the source gives them in different places.

Columns and labels:
[1] = tested on: IL-1, TNF, IL-1 RA and sTNFr; test: Serum IL-1, TNF, IL-1RA and sTNFr after Doxycycline injection in uninfected mice (Group 1); type: in vivo, BALB/c mice; conditions: 58 mg/kg i.m. every day for 4 days
[2] = tested on: Lassa virus strain Josiah; design: species or system BALB/c mice; conditions: mouse, in vivo
[3] = tested on: IL-1, TNF, IL-1RA and sTNFr; test: Serum IL-1, TNF, IL-1RA and sTNFr during treatment of Dengue virus infection (Example 2); type: in vivo, BALB/c mice
[4] = tested on: Marburg virus strain Popp; design: species or system guinea-pigs; conditions: guinea pig, in vivo; monohydrate
[5] = tested on: Dengue virus, type 2; design: species or system BALB/c mice; conditions: mouse, in vivo
[6] = 7 day period without viral infection
[7] = tested on: IL-1, IL-1Ra, TNF and soluble TNF receptor (sTNFR); design: species or system BALB/c mice; conditions: mouse, in vivo
[8] = 58 mg/kg i.m. during 17 day period without virus injection
[9] = day 0, 58 mg/kg i.m. daily day 2-5 after infection (Group 3)
[10] = day 0, 58 mg/kg i.m. daily day 3-5 after infection (Group 4)
[11] = day 1, 58 mg/kg i.m. daily day 2-5 after infection (Group 3)
[12] = day 1, 58 mg/kg i.m. daily day 3-5 after infection (Group 4)
[13] = day 2, 58 mg/kg i.m. daily day 2-5 after infection (Group 3)
[14] = day 2, 58 mg/kg i.m. daily day 3-5 after infection (Group 4)
[15] = day 3, 58 mg/kg i.m. daily day 2-5 after infection (Group 3)
[16] = day 3, 58 mg/kg i.m. daily day 3-5 after infection (Group 4)
[17] = day 4, 58 mg/kg i.m. daily day 2-5 after infection (Group 3)
[18] = day 4, 58 mg/kg i.m. daily day 3-5 after infection (Group 4)
[19] = day 5, 58 mg/kg i.m. daily day 2-5 after infection (Group 3)
[20] = day 5, 58 mg/kg i.m. daily day 3-5 after infection (Group 4)

CC1c2cccc(O)c2C(=O)C2=C(O)C3(O)C(=O)C(C(N)=O)=C(O)C(N(C)C)C3C(O)C21.O (centres unmarked) [Doxycycline, 4-(Dimethylamino)-1,4,4a,5,5a,6,11,12a-octahydro-3,5,10,12,12a-pentahydroxy-6-methyl-1, 11-dioxo-2-naphthacenecarboxamide monohydrate]
I + II ([1]; day 0, before the injection): 0.166
IL-1 ([1]; day 0, before the injection): 2.95 pg/mL
IL-1/IL-IRA (I) ([1]; day 0, before the injection): 0.098
IL-IRA ([1]; day 0, before the injection): 30 pg/mL
TNF ([1]; day 0, before the injection): 1.17 pg/mL
TNF/sTNFrl (II) ([1]; day 0, before the injection): 0.068
sTNFrl ([1]; day 0, before the injection): 17 pg/mL
I + II ([1]; day 1 after the injection): 0.187
IL-1 ([1]; day 1 after the injection): 20.62 pg/mL
IL-1/IL-IRA (I) ([1]; day 1 after the injection): 0.115
IL-IRA ([1]; day 1 after the injection): 180 pg/mL
TNF ([1]; day 1 after the injection): 4.68 pg/mL
TNF/sTNFrl (II) ([1]; day 1 after the injection): 0.072
sTNFrl ([1]; day 1 after the injection): 85 pg/mL
I + II ([1]; day 2 after the injection): 0.753
IL-1 ([1]; day 2 after the injection): 17.43 pg/mL
IL-1/IL-IRA (I) ([1]; day 2 after the injection): 0.291
IL-IRA ([1]; day 2 after the injection): 60 pg/mL
TNF ([1]; day 2 after the injection): 17.55 pg/mL
TNF/sTNFrl (II) ([1]; day 2 after the injection): 0.462
sTNFrl ([1]; day 2 after the injection): 38 pg/mL
I + II ([1]; day 3 after the injection): 0.486
IL-1 ([1]; day 3 after the injection): 17.48 pg/mL
IL-1/IL-IRA (I) ([1]; day 3 after the injection): 0.219
IL-IRA ([1]; day 3 after the injection): 80 pg/mL
TNF ([1]; day 3 after the injection): 9.36 pg/mL
TNF/sTNFrl (II) ([1]; day 3 after the injection): 0.267
sTNFrl ([1]; day 3 after the injection): 35 pg/mL
I + II ([1]; day 4 after the injection): 0.318
IL-1 ([1]; day 4 after the injection): 17.93 pg/mL
IL-1/IL-IRA (I) ([1]; day 4 after the injection): 0.102
IL-IRA ([1]; day 4 after the injection): 175 pg/mL
TNF ([1]; day 4 after the injection): 8.19 pg/mL
TNF/sTNFrl (II) ([1]; day 4 after the injection): 0.216
sTNFrl ([1]; day 4 after the injection): 38 pg/mL
survival [2]: 70%
death ([2]; 58 mg/kg): 6
I + II [3, 9]: 0.151
IL-1 [3, 9]: 2.95 pg/mL
IL-1/IL-IRA (I) [3, 9]: 0.083
IL-IRA [3, 9]: 30 pg/mL
TNF [3, 9]: 1.17 pg/mL
TNF/sTNF (II) [3, 9]: 0.068
sTNFrl [3, 9]: 17 pg/mL
I + II [3, 10]: 0.151
IL-1 [3, 10]: 2.95 pg/mL
IL-1/IL-IRA (I) [3, 10]: 0.083
IL-IRA [3, 10]: 30 pg/mL
TNF [3, 10]: 1.17 pg/mL
TNF/sTNF (II) [3, 10]: 0.068
sTNFrl [3, 10]: 17 pg/mL
I + II [3, 11]: 0.407
IL-1 [3, 11]: 10.6 pg/mL
IL-1/IL-IRA (I) [3, 11]: 0.151
IL-IRA [3, 11]: 70 pg/mL
TNF [3, 11]: 8.19 pg/mL
TNF/sTNF (II) [3, 11]: 0.256
sTNFrl [3, 11]: 32 pg/mL
I + II [3, 12]: 0.407
IL-1 [3, 12]: 10.6 pg/mL
IL-1/IL-IRA (I) [3, 12]: 0.151
IL-IRA [3, 12]: 70 pg/mL
TNF [3, 12]: 8.19 pg/mL
TNF/sTNF (II) [3, 12]: 0.256
sTNFrl [3, 12]: 32 pg/mL
I + II [3, 13]: 0.985
IL-1 [3, 13]: 16.8 pg/mL
IL-1/IL-IRA (I) [3, 13]: 0.258
IL-IRA [3, 13]: 65 pg/mL
TNF [3, 13]: 26.9 pg/mL
TNF/sTNF (II) [3, 13]: 0.727
sTNFrl [3, 13]: 37 pg/mL
I + II [3, 14]: 0.985
IL-1 [3, 14]: 16.8 pg/mL
IL-1/IL-IRA (I) [3, 14]: 0.258
IL-IRA [3, 14]: 65 pg/mL
TNF [3, 14]: 26.9 pg/mL
TNF/sTNF (II) [3, 14]: 0.727
sTNFrl [3, 14]: 37 pg/mL
I + II [3, 15]: 0.643
IL-1 [3, 15]: 17.9 pg/mL
IL-1/IL-IRA (I) [3, 15]: 0.211
IL-IRA [3, 15]: 85 pg/mL
TNF [3, 15]: 19.89 pg/mL
TNF/sTNF (II) [3, 15]: 0.432
sTNFrl [3, 15]: 46 pg/mL
I + II [3, 16]: 1.161
IL-1 [3, 16]: 26.7 pg/mL
IL-1/IL-IRA (I) [3, 16]: 0.381
IL-IRA [3, 16]: 70 pg/mL
TNF [3, 16]: 35.1 pg/mL
TNF/sTNF (II) [3, 16]: 0.780
sTNFrl [3, 16]: 45 pg/mL
I + II [3, 17]: 0.809
IL-1 [3, 17]: 24.18 pg/mL
IL-1/IL-IRA (I) [3, 17]: 0.318
IL-IRA [3, 17]: 76 pg/mL
TNF [3, 17]: 24.57 pg/mL
TNF/sTNF (II) [3, 17]: 0.491
sTNFrl [3, 17]: 50 pg/mL
I + II [3, 18]: 1.375
IL-1 [3, 18]: 30.42 pg/mL
IL-1/IL-IRA (I) [3, 18]: 0.400
IL-IRA [3, 18]: 76 pg/mL
TNF [3, 18]: 46.8 pg/mL
TNF/sTNF (II) [3, 18]: 0.975
sTNFrl [3, 18]: 48 pg/mL
I + II [3, 19]: 4.14
IL-1 [3, 19]: 30.42 pg/mL
IL-1/IL-IRA (I) [3, 19]: 0.390
IL-IRA [3, 19]: 78 pg/mL
TNF [3, 19]: 262.5 pg/mL
TNF/sTNF (II) [3, 19]: 3.75
sTNFrl [3, 19]: 70 pg/mL
I + II [3, 20]: 5.256
IL-1 [3, 20]: 36.6 pg/mL
IL-1/IL-IRA (I) [3, 20]: 0.435
IL-IRA [3, 20]: 84 pg/mL
TNF [3, 20]: 337.5 pg/mL
TNF/sTNF (II) [3, 20]: 4.821
sTNFrl [3, 20]: 70 pg/mL
m.t.d. (mean time to death) [4]: 7.6 and 8.54 and 7.69
Survival/dead [5]: 0/10
mice dead on 4 day [5]: 4 mice - on 4 day
mice dead on 5 day [5]: 5 mice - on 5 day
mice dead on 6 day [5]: 1 mice - on 6 day
mice dead on day 6 [5]: 10 mice on day 6
Survival/dead ([5]; 58 mg/kg, monohydrate): 10/0 and 0/10 and 6/4 and 2/4 and 1/3 and 0/1
toxicity to control groups [6]: not toxic
death ([6]; of 20 mice): 0
survival ([6]; of 20 mice): 20
increase of the ratio of IL-1/IL-1Ra over the base level [7]: about 5 fold
toxicity to control groups [8]: not toxic
survival ([8]; of 6 guinea pigs): 6
